Test results from publication PMC11274883, “Anticancer Effect of Pt^[sequence], Pt^II5MESS, Pt^II56MESS and Their Platinum(IV)-Dihydroxy Derivatives against Triple-Negative Breast Cancer and Cisplatin-Resistant Colorectal Cancer” (Cancers, 2024).

How the values were obtained:
Type in all cases: cell-based
HT29 cells [1] = assay: Cellular uptake of Pt by ICP-MS; conditions: for Intracellular Concentration: HT29, 3 µM; for Intracellular/extracellular ratio: HT29, extracellular 3 µM
Procedure: A final concentration of 10^6 cells/well of MDA−MB−231 and HT29 cells were seeded in 6-well plates and incubated overnight to adhere. The cells were then treated with a final concentration of 3 µM of either Pt^II or Pt^IV complexes. After 0, 0.5, 1, 3, 6, 12, 24 or 30 h, the medium was removed, and the cells were washed three times with cold PBS and allowed to dry. Then, 400 µL of 69% HNO3 (Baseline grade nitric acid with PPB level reported impurities, Seastar Chemicals, Sidney, BC, Canada) was added to each well for 90 min to ensure complete digestion. […] Iridium 193 (^193Ir) was mixed online and introduced into the ICP-MS to check uptake efficiency and matrix interference. All ICP-MS parameters are described in Table S2 and elaborated in Method S3. The results represent an average of three different experiments run in triplicate (±SEM) and expressed as nmol/10^6 cells or µM/cell. Quantification of the cellular uptake of Pt was based on external standards (Certified Standard from Sigma-Aldrich, VIC, Australia) containing Internal standard Ir.
Method S3. Cellular Uptake of Platinum(II) and (IV) complexes
A final concentration of 10^6 cells/well of MDA−MB−231 and HT29 cells were seeded in 6-well plates and incubated overnight to adhere. The cells were then treated with a final concentration of 3 µM of either PtII or PtIV complexes. After 0, 0.5, 1, 3, 6, 12, 24 or 30 h, the medium was removed, and the cells were washed three times with cold PBS and allowed to dry. Then, 400 µL of 69% HNO3 (Baseline grade nitric acid with Instrument Quality Grade Nitric acid with ppb level reported impurities, Seastar Chemicals, Sidney, Canada) was added to each well for 90 mins to ensure complete digestion. The digests were then moved to trace -metal free 15 mL centrifuge tubes […]
concentration of 3.5-4%. Iridium 193 (193Ir), selected as internal standard, has similar first ionisation potential and mass to Platinum 195 (195Pt). A concentration of 50 ppb 193Ir in 2% HNO3 solution was chosen for the Perkin Elmer NexION® Inductively Coupled Plasma Mass Spectrometer (ICP-MS) as it produced a steady state signal intensity of 600-800K counts per second. Mixing and injection of sample and internal standard solution was carried out using an ESI 7 port Valve system (Elemental Scientific, USA). A high-quality Solvent Flex 2 stop pump with 0.38 mm ID tubing was used in conjunction with the ICP-MS’s Peristaltic pump set at 20 […]
standard both, at 0.25 mL/min) being 0.5 mL/min. The ICP-MS was tuned to high sensitivity settings to facilitate detection of low Pt concentrations in samples. This was done by adjusting the nebuliser gas flow between […] to achieve maximum Indium 115 intensity whilst maintaining an acceptable average oxide and doubly charged ratio of 1.64-2.24% and 1.17-1.69% respectively. The analysis method was set to peak hopping mode with a dwell time of […] and 45 sweeps through the mass spectrum per sample read. […]
peak integration time of 4500 milliseconds and enabled the collection of numerous data points for peak integration thereby increasing accuracy. The ICP-MS was tuned daily, and its performance optimised to a set of suppliers recommended settings. Analysis was only carried out when optimal oxide and doubly charged ratios with high ionic sensitivity was achieved. All ICP-MS parameters are described in Table S2. The results represent an average of three different experiments run in triplicates (± SEM) and expressed as nmol/106 cells or µM/cell. Quantification of the cellular uptake of Pt was based on external standards (Certified Standard from Sigma-Aldrich NSW, Australia) containing Internal standard Ir. […]

HT29 cells [2] = assay: TMRE mitochondrial membrane potential assay; conditions: complexes at IC50, FCCP 20 µM
Procedure: Cells were then treated with an IC50 drug concentration for each complex. At 24, 48 or 72 h, DMEM was removed, and cells were washed with PBS. Then, cells were incubated with 1 µM tetramethylrhodamine, ethyl ester (TMRE) stain for 30 min. TMRE was then removed, and cells were washed twice with PBS (0.2% BSA), after which phenol red-free media was added. […] The cells were then stained with TMRE, as described above, and the resulting solution was scanned for fluorescence. Three independent experiments in triplicates were implemented.

MDA−MB−231 3D networks = assay: 3D bioprinted culture cytotoxicity (WST-1); conditions: 72 h, mean ± SEM
Description: To evaluate the cytotoxic effect of platinum(II) and (IV) complexes in 3D cell culture, MDA−MB−231 or HT29 cells were used to bioprint networks or spheroids with the non-contact drop-on-demand 3D RASTRUM bioprinter (Inventia Life Science, Alexandria, NSW, Australia). The 3D cultures use two constituents: bioink and activator. Cell pellets (2 × 10^6 cells) were resuspended in an activator reagent which forms an instant gel after its addition to the bioink by the bioprinter. The 3D large plug cell model with polyethylene glycol bioinks formulated to mimic the properties of in vivo tissue were chosen as follows. Matrix Px02.31 (activator F177 and bioink F242 with RGD: Fibronectin) was used for MDA−MB−231 3D embedded networks, Px02.00 (activator F177 and bioink F119 without RGD additives, Table S1) was used for MDA−MB−231 spheroids and matrix #Px02.09 (activator F177 and bioink F236 with adhesion peptides including, RGD: Fibronectin, and GFOGER: collagen type I to recapitulate rich in vivo tissue extracellular environments) was used for HT29 spheroids (Inventia Life Science) (Table S1). Each cell line was printed at 10,000 cells/well and loaded with the bioink fluids into the selected printer cartridge. After the automated priming of all fluids into the printer nozzles, each cell line was individually printed on tissue culture plates (Nunc^TM MicroWell^TM 96-Well, Nunclon Delta-Treated, Flat-Bottom Microplate, ThermoFisher #167008), with RASTRUM creating the 3D Large Plug across the 96-well plate. Following completion of the print run, 200 μL DMEM culture medium was added to each well using multichannel pipettes. The plate was then incubated for 7 days (humidified incubator with 5% CO2 at 37 °C) for compact and homogenous spheroid formation before the cytotoxicity assay. When the spheroids developed, post-7-day incubation, media was removed and replaced with 100 µL DMEM. […] Cytotoxicity was then assessed using the WST-1 assay as previously described in Section 2.3.

Row | Compound | Intracellular Concentration (HT29 cells [1]; 0 h) [nmol/10^6 cells] | Intracellular Concentration (HT29 cells [1]; 0.5 h) [nmol/10^6 cells] | Intracellular Concentration (HT29 cells [1]; 1 h) [nmol/10^6 cells] | Intracellular Concentration (HT29 cells [1]; 3 h) [nmol/10^6 cells] | Intracellular Concentration (HT29 cells [1]; 6 h) [nmol/10^6 cells] | Intracellular Concentration (HT29 cells [1]; 12 h) [nmol/10^6 cells] | Intracellular Concentration (HT29 cells [1]; 24 h) [nmol/10^6 cells] | Intracellular Concentration (HT29 cells [1]; 30 h) [nmol/10^6 cells] | MtMp (mitochondrial membrane potential) (HT29 cells [2]; HT29, 24 h) [RFU] | MtMp (mitochondrial membrane potential) (HT29 cells [2]; HT29, 48 h) [RFU] | MtMp (mitochondrial membrane potential) (HT29 cells [2]; HT29, 72 h) [RFU] | IC50 (MDA−MB−231 3D networks) [nM] | Intracellular/extracellular ratio (HT29 cells [1]; 0 h) | Intracellular/extracellular ratio (HT29 cells [1]; 0.5 h) | Intracellular/extracellular ratio (HT29 cells [1]; 1 h) | Intracellular/extracellular ratio (HT29 cells [1]; 3 h) | Intracellular/extracellular ratio (HT29 cells [1]; 6 h) | Intracellular/extracellular ratio (HT29 cells [1]; 12 h) | Intracellular/extracellular ratio (HT29 cells [1]; 24 h) | Intracellular/extracellular ratio (HT29 cells [1]; 30 h) | also measured
1 | N.N.[Cl][Pt][Cl] [Cisplatin, cisplatin] | 0.36 | 0.94 | 0.14 | 0.28 | 0.10 | 0.57 | 1.02 | 0.71 | 270.02 | 237.68 | 188.59 | 16000 ± 1490 | – | – | – | – | – | – | – | – | –
2 | Cc1cc2cccnc2c2ncccc12.N[C@H]1CCCC[C@@H]1N.O=[N+]([O-])[O-].O=[N+]([O-])[O-].[Pt+2] [Pt^II5MESS, [Pt(5-methyl-1,10-phenanthroline)(1S,2S-diaminocyclohexane)](NO3)2] | 0.28 | 0.79 | 1.26 | 2.75 | 4.65 | 19.18 | 21.18 | 21.24 | 253.81 | 211.88 | 143.93 | 2040 ± 1310 | 44.37 | 125.00 | 197.63 | 431.44 | 730.89 | 3013.21 | 3327.94 | 3337.20 | –
3 | Cc1c(C)c2cccnc2c2ncccc12.N[C@H]1CCCC[C@@H]1N.O=[N+]([O-])[O-].O=[N+]([O-])[O-].[Pt+2] [Pt^II56MESS, [Pt(5,6-dimethyl-1,10-phenanthroline)(1S,2S-diaminocyclohexane)](NO3)2] | 0.45 | 0.87 | 1.38 | 2.23 | 5.05 | 17.67 | 23.28 | 24.85 | 159.93 | 151.44 | 102.76 | 980 ± 1210 | 70.93 | 136.74 | 216.82 | 350.73 | 793.80 | 2776.28 | 3657.59 | – | intracellular/extracellular ratio relative to the maximum ratio of cisplatin (HT29 cells [1]; HT29, 30 h): 34.8 fold; Intracellular/extracellular ratio (HT29 cells [1]; 30 h, listed as 56MESS): ~3904; Intracellular/extracellular ratio (HT29 cells [1]; 30 h, listed as PtII56MESS): 3903.51; drug's concentration per cell (HT29 cells [1]; per HT29 cell, cell volume 1.7 pL, starting concentration 3 µM): ~11,711 µM
4 | Cc1cc2cccnc2c2ncccc12.N[C@H]1CCCC[C@@H]1N.O=[N+]([O-])[O-].O=[N+]([O-])[O-].[OH][Pt+2][OH] [Pt^IV5MESS(OH)2, [Pt(5-methyl-1,10-phenanthroline)(1S,2S-diaminocyclohexane)(dihydroxy)](NO3)2] | 0.15 | 0.17 | 0.28 | 0.33 | 0.66 | 5.05 | 7.37 | 7.85 | 304.45 | 224.23 | 198.24 | 3820 ± 1420 | 25.03 | 26.29 | 44.59 | 52.25 | 104.08 | 793.61 | 1158.37 | 1234.08 | –
